Assay: Photostability, illumination with high intensity mercury lamp
Type: physicochemical
Conditions: methanol solution; dissolved in methanol (4 mmol/l), mercury lamp 200-600 nm; read-out: Half-life of decomposition during illumination

half-life at 4 mmol/l: 65 min
Structure (SMILES): COc1cc(/C=C/C(=O)CC(=O)/C=C/c2ccc(O)c(OC)c2)ccc1O [curcumin]

From patent US8568815B2, “Soluble complexes of curcumin” (Novobion Oy, priority 2008, dated 2013)
